Results: patent publication US11766427B2, “Repurposing compounds for the treatment of infections and for modulating the composition of the gut microbiome” (EUROPEAN MOLECULAR BIOLOGY LABORATORY, priority 2018, dated 2023)
Where a name gives a salt, the structure may show the parent alone. Read-outs that look alike come from different tables or passages of the source.

What was measured:
[1] = system: Clostridium perfringens (NT5032); format: cell-based; conditions: screen at 20 μM
[2] = system: 40 different bacterial species; test: Prestwick Chemical Library growth screen, whole panel (hits, anticommensal activity); format: cell-based, human gut isolates
[3] = system: Bacteroides ovatus (NT5054); test: Prestwick Chemical Library growth screen (OD578 growth curves, AUC); format: cell-based; conditions: FIG. 8b, three biological replicates, 20 μM
[4] = system: Bacteroides fragilis (ET) (NT5033); format: cell-based, Bacteroides fragilis enterotoxigenic; conditions: screen at 20 μM
[5] = calculated; cited from earlier work
22 strains = test: MIC of metformin at higher concentrations; conditions: 5/22 strains
[6] = Estimated gut concentration from administration dose; conditions: estimated from recommended administration dose
[7] = system: Fusobacterium nucleatum (NT5025); test: Prestwick Chemical Library growth screen (OD578 growth curves, AUC); format: cell-based; conditions: screen at 20 μM
[8] = cited from earlier work
[9] = system: Clostridium difficile (NT5083); test: Prestwick Chemical Library growth screen (OD578 growth curves, AUC); format: cell-based; conditions: screen at 20 μM
[10] = number of species inhibited of 40 different bacterial species tested
[11] = number of the 40 strains inhibited at 20 μM (FDR<0.01)

Nc1ncn(C2OC(CO)C(O)C2O)c(=O)n1 (stereo not shown) [Azacytidine-5]
selective inhibition of the growth of C. perfringens bacteria (in words) [1]: selectively inhibiting the growth | n_hit [2, 10]: 1

Nc1ccn([C@@H]2O[C@H](CO)[C@@H](O)C2(F)F)c(=O)n1 [Gemcitabine]
selective inhibition of the growth of C. perfringens bacteria (in words) [1]: selectively inhibiting the growth | n_hit [2, 10]: 2

CC(=O)O[C@H]1C(=O)[C@@]2(C)[C@H]([C@H](OC(=O)c3ccccc3)[C@]3(O)C[C@H](OC(=O)[C@H](O)[C@@H](NC(=O)c4ccccc4)c4ccccc4)C(C)=C1C3(C)C)[C@]1(OC(C)=O)CO[C@@H]1C[C@@H]2O [Paclitaxel]
selective inhibition of the growth of C. perfringens bacteria (in words) [1]: selectively inhibiting the growth | n_hit [2, 10]: 1

COC1=C(OC)C(=O)C(CCCCCCCCCCO)=C(C)C1=O [Idebenone]
selective inhibition of the growth of C. perfringens bacteria (in words) [1]: selectively inhibiting the growth | n_hit [2, 10]: 3

CC(=O)Oc1cccc2c1C(=O)c1c(OC(C)=O)cc(C(=O)O)cc1C2=O [Diacerein]
effect on growth curves (normalized OD/AUC) of Bacteroides ovatus (in words) [3]: almost completely inhibits the growth | n_hit ([2]; number of the 40 bacterial species tested whose growth is inhibited, Table 7 broad-spectrum compounds): 33

Cc1ccc(Cl)c(Nc2ccccc2C(=O)O)c1Cl [Meclofenamic acid]
selective inhibition of the growth of an enterotoxigenic strain of Bacteroides fragilis (in words) [4]: selectively inhibiting the growth | effect on growth curves (normalized OD/AUC) of Bacteroides ovatus (in words) [3]: just below the hit threshold | n_hit [2, 10]: 5

CN(C)C(=N)N=C(N)N [metformin]
anticommensal activity in the screen (in words) ([2]; 20 μM, 40 strains, FDR<0.01): did not show anticommensal activity | small intestine concentration relative to plasma concentration [5]: 30-300 fold | Minimal Inhibitory Concentration (MIC) (22 strains): < 10 mM | estimated gut concentration [6]: 5 mM

C=C(CC)C(=O)c1ccc(OCC(=O)O)c(Cl)c1Cl [Ethacrynic acid]
selective inhibition of the growth of an enterotoxigenic strain of Bacteroides fragilis (in words) [4]: selectively inhibiting the growth | selective inhibition of the growth of C. perfringens bacteria (in words) [1]: selectively inhibiting the growth | n_hit [2, 10]: 6

CN1CCCC(CC2c3ccccc3Sc3ccccc32)C1 (stereo not shown) [Metixene hydrochloride]
selective inhibition of the growth of an enterotoxigenic strain of Bacteroides fragilis (in words) [4]: selectively inhibiting the growth | n_hit [2, 10]: 9

CNCCCC1c2ccccc2C=Cc2ccccc21 [Protriptyline hydrochloride]
selective inhibition of the growth of an enterotoxigenic strain of Bacteroides fragilis (in words) [4]: selectively inhibiting the growth | n_hit [2, 10]: 8

O=c1cc(-c2ccc(O)c(O)c2)oc2cc(O)cc(O)c12 [Luteolin]
selective inhibition of the growth of Fusobacterium nucleatum (in words) [7]: selectively inhibiting the growth | n_hit [2, 10]: 1

CC[C@@H]([C@H](C)O)n1ncn(-c2ccc(N3CCN(c4ccc(OC[C@@H]5CO[C@@](Cn6cncn6)(c6ccc(F)cc6F)C5)cc4)CC3)cc2)c1=O [posaconazole]
maximum concentration in the duodenum ([8]; 40 mg (57 μmol) delivered to the stomach in acidic solution): 26.3 ± 10.3 µM | maximum concentration in the duodenum ([8]; 40 mg (57 μmol) delivered to the stomach in neutral solution): 13.6 ± 5.8 µM

CC(NCCC(c1ccccc1)c1ccccc1)c1ccccc1 (stereo not shown) [Fendiline hydrochloride]
inhibition of the growth of C. difficile bacteria (in words) [9]: effective in inhibiting the growth | n_hit [2, 11]: 8

Cn1cnc([N+](=O)[O-])c1Sc1ncnc2nc[nH]c12 [Azathioprine]
inhibition of the growth of C. difficile bacteria (in words) [9]: effective in inhibiting the growth | n_hit [2, 11]: 7

CCOC1O[C@H]([C@@H](COCc2ccccc2)OCc2ccccc2)[C@H](OCc2ccccc2)[C@H]1O (stereo partly shown) [Tribenoside]
inhibition of the growth of C. difficile bacteria (in words) [9]: effective in inhibiting the growth | n_hit [2, 11]: 1

COCCOC(=O)C1=C(C)NC(C)=C(C(=O)OC/C=C/c2ccccc2)C1c1cccc([N+](=O)[O-])c1 (stereo not shown) [Cilnidipine]
selective inhibition of the growth of an enterotoxigenic strain of Bacteroides fragilis (in words) [4]: selectively inhibiting the growth | inhibition of the growth of C. difficile bacteria (in words) [9]: effective in inhibiting the growth | n_hit [2, 11]: 5

C=C1/C(=C\C=C2/CCC[C@]3(C)[C@@H]([C@H](C)CCCC(C)C)CC[C@@H]23)C[C@@H](O)C[C@@H]1O [Alfacalcidol]
selective inhibition of the growth of C. perfringens bacteria (in words) [1]: selectively inhibiting the growth | n_hit [2, 10]: 7

O=C1c2ccccc2C(=O)C1c1ccccc1 [Phenindione]
selective inhibition of the growth of C. perfringens bacteria (in words) [1]: selectively inhibiting the growth | n_hit [2, 10]: 1

COc1ccc2c(c1)C(=O)N(CCc1ccc(S(=O)(=O)NC(=O)NC3CCCCC3)cc1)C(=O)C2(C)C [Gliquidone]
inhibition of the growth of C. difficile bacteria (in words) [9]: effective in inhibiting the growth | n_hit [2, 11]: 1

Cc1cccc(N(C)C(=S)Oc2ccc3ccccc3c2)c1 [Tolnaftate]
selective inhibition of the growth of an enterotoxigenic strain of Bacteroides fragilis (in words) [4]: selectively inhibiting the growth | n_hit [2, 10]: 5

CCOC(=O)/C=C(C)/C=C/C=C(C)/C=C/c1c(C)cc(OC)c(C)c1C [Etretinate]
selective inhibition of the growth of C. perfringens bacteria (in words) [1]: selectively inhibiting the growth | n_hit [2, 10]: 1

CCOC(=O)Nc1ccc2c(c1)N(C(=O)CCN1CCOCC1)c1ccccc1S2 [moricizine]
effect on growth curves (normalized OD/AUC) of Bacteroides ovatus (in words) [3]: a hit with partial but strong growth inhibition

S=c1nc[nH]c2nc[nH]c12 [Mercaptopurine]
inhibition of the growth of C. difficile bacteria (in words) [9]: effective in inhibiting the growth | n_hit [2, 11]: 4

CN(C)CCCN1c2ccccc2Sc2ccc(Cl)cc21 [Chlorpromazine hydrochloride]
selective inhibition of the growth of C. perfringens bacteria (in words) [1]: selectively inhibiting the growth | n_hit [2, 10]: 6

CC1(C)[C@@H](OC(=O)CCC(=O)O)CC[C@]2(C)[C@H]3C(=O)C=C4[C@@H]5C[C@@](C)(C(=O)O)CC[C@]5(C)CC[C@@]4(C)[C@]3(C)CC[C@@H]12 [Carbenoxolone disodium salt]
inhibition of the growth of C. difficile bacteria (in words) [9]: effective in inhibiting the growth | n_hit [2, 11]: 2

Cc1cc(-n2c(=O)[nH]c(=O)n(C)c2=O)ccc1Oc1ccc(SC(F)(F)F)cc1 [Toltrazuril]
selective inhibition of the growth of an enterotoxigenic strain of Bacteroides fragilis (in words) [4]: selectively inhibiting the growth | n_hit [2, 10]: 7

CCCc1nc2c(C)cc(-c3nc4ccccc4n3C)cc2n1Cc1ccc(-c2ccccc2C(=O)O)cc1 [Telmisartan]
inhibition of the growth of C. difficile bacteria (in words) [9]: effective in inhibiting the growth | n_hit [2, 11]: 4
